This passage reports inhibition results from PMC5540273, “Progress towards a public chemogenomic set for protein kinases and a call for contributions” (PLoS ONE, 2017).

Structures are written as SMILES.

Common to all, as to assay: KINOMEscan competition binding
One assay deals with T1, EPHB4 (Homo sapiens, UniProt P54760).
T1 sequence (P54760 16-987): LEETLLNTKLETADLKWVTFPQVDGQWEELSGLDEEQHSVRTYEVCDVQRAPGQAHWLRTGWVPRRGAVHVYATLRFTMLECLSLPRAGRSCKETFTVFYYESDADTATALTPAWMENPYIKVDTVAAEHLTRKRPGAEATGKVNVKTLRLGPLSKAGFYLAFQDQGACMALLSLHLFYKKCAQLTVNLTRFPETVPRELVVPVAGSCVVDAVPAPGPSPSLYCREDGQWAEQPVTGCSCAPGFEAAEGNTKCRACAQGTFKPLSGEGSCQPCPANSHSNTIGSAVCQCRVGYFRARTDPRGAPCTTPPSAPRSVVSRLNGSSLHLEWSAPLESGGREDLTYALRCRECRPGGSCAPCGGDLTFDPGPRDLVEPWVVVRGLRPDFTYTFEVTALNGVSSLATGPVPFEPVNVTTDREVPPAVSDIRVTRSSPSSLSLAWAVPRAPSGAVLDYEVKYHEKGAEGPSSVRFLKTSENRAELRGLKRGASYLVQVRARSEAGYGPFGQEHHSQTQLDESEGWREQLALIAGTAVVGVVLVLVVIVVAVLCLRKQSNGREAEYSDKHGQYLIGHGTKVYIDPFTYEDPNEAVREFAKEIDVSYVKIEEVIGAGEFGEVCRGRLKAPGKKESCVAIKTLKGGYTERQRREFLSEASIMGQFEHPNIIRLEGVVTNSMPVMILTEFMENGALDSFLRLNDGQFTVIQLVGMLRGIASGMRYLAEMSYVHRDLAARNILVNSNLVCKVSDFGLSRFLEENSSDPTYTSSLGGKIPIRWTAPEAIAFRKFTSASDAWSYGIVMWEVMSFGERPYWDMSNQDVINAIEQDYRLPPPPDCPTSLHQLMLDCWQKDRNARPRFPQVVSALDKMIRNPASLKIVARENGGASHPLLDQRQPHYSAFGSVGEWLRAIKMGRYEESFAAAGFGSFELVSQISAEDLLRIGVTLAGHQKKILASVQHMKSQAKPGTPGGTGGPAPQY
To be noted: read-out: %Inh EPHB4.

In another assay the target is ERBB4 (Homo sapiens, UniProt Q15303). To be noted: read-out: %Inh ERBB4.
In the next assay the target is FER (Homo sapiens, UniProt P16591). To be noted: read-out: %Inh FER.
For another assay, the target named is FLT4 (Homo sapiens, UniProt P35916). To be noted: read-out: %Inh FLT4.
Another assay has as its target T2, LATS2 (Homo sapiens, UniProt Q9NRM7).
T2 sequence (Q9NRM7 1-1088): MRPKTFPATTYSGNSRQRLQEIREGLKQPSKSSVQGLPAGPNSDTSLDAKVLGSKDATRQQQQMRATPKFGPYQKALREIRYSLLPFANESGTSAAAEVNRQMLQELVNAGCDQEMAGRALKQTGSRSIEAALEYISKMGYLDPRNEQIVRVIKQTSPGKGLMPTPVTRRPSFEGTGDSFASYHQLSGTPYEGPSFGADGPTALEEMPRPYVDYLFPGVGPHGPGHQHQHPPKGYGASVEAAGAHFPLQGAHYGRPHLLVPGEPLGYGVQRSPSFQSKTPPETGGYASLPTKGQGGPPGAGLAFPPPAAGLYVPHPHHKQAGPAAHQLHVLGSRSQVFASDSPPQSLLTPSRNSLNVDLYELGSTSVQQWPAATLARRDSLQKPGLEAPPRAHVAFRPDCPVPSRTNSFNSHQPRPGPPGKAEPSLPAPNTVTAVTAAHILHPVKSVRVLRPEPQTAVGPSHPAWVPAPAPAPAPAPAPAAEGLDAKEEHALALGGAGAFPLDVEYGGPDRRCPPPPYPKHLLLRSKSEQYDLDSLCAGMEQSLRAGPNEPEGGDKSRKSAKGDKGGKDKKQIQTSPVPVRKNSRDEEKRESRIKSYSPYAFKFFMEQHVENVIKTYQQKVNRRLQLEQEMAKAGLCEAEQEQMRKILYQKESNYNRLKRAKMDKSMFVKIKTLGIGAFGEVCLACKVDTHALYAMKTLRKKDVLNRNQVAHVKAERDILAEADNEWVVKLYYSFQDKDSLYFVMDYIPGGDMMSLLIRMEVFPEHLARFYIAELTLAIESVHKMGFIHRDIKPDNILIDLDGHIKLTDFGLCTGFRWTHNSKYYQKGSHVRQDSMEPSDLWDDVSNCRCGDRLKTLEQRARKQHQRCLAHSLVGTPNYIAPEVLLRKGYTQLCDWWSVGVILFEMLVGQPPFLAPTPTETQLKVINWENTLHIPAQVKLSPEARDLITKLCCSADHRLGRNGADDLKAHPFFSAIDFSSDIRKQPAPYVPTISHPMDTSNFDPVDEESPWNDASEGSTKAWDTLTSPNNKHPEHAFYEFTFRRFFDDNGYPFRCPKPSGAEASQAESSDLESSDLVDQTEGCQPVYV
To be noted: read-out: %Inh LATS2.

Another assay addresses T3, MAK (Homo sapiens, UniProt P20794).
T3 sequence (P20794 1-623): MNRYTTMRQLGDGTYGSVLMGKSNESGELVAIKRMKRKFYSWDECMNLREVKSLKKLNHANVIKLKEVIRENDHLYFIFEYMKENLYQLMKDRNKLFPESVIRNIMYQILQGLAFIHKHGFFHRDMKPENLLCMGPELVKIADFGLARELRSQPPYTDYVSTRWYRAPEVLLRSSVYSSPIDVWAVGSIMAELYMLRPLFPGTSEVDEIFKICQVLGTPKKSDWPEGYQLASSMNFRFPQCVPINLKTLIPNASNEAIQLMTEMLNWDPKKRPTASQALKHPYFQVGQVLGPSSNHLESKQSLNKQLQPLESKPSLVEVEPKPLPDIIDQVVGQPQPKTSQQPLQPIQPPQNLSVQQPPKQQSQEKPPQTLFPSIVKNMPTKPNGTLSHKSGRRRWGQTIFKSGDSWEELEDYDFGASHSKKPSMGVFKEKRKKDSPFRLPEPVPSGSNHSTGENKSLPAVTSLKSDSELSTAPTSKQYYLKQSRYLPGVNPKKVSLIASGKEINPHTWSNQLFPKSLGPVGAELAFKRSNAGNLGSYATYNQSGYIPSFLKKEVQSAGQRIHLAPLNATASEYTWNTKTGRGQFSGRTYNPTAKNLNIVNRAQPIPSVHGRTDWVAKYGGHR
To be noted: read-out: %Inh MAK.

ERBB4, sequence (Q15303 26-1308): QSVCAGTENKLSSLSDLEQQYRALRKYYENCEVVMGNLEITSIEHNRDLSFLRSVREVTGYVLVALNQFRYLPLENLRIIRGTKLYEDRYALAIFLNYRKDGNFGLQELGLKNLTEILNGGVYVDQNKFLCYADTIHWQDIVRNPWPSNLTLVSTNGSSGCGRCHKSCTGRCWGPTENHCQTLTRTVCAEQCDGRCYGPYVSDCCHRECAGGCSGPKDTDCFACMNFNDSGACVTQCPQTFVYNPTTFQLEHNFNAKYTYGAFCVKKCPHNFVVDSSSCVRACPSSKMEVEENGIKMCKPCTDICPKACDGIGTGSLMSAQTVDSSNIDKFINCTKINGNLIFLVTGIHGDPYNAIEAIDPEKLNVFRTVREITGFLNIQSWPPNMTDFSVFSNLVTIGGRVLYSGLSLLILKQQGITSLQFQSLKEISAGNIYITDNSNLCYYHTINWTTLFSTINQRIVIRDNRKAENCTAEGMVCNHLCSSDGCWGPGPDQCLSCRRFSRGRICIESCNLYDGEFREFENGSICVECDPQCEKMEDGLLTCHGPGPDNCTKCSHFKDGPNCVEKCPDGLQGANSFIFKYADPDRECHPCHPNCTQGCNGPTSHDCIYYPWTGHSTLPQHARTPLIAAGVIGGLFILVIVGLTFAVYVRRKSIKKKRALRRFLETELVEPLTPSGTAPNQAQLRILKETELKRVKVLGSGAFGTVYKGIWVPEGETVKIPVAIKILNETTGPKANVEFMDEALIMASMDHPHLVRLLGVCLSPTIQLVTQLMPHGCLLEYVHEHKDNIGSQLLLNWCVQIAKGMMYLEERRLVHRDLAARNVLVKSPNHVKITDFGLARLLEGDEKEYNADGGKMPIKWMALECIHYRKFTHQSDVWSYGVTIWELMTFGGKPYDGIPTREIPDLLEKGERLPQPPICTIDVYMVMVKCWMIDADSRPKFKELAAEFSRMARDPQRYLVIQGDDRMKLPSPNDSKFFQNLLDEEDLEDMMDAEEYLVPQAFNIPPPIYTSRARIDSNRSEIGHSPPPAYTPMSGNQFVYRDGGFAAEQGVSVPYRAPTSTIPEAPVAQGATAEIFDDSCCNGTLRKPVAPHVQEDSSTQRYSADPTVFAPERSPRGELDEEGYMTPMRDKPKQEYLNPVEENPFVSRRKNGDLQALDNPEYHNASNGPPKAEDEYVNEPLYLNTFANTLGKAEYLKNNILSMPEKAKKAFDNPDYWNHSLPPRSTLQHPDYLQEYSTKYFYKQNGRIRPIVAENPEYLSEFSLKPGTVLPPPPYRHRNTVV
FER, sequence (P16591 whole entry): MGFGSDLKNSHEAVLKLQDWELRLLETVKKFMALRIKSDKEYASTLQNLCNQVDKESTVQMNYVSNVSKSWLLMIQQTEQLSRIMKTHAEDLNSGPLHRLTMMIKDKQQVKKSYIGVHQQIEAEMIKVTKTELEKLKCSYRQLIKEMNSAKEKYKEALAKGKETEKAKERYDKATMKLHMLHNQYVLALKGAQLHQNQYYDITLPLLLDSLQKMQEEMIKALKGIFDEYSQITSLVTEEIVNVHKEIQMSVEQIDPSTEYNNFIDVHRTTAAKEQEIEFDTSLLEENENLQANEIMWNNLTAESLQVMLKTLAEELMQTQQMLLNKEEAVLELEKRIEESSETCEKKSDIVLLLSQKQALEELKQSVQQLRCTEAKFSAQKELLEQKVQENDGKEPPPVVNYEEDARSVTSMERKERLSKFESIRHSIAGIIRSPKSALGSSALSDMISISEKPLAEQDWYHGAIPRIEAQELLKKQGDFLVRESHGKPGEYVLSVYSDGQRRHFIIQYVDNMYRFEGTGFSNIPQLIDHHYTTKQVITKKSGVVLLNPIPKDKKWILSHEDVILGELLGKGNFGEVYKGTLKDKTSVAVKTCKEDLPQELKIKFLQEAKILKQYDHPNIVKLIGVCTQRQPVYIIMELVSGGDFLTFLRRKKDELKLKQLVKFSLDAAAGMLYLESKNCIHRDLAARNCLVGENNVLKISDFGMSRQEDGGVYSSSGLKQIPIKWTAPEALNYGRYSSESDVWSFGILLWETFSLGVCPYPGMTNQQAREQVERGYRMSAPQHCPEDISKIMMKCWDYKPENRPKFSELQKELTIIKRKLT
FLT4, sequence (P35916 25-1363): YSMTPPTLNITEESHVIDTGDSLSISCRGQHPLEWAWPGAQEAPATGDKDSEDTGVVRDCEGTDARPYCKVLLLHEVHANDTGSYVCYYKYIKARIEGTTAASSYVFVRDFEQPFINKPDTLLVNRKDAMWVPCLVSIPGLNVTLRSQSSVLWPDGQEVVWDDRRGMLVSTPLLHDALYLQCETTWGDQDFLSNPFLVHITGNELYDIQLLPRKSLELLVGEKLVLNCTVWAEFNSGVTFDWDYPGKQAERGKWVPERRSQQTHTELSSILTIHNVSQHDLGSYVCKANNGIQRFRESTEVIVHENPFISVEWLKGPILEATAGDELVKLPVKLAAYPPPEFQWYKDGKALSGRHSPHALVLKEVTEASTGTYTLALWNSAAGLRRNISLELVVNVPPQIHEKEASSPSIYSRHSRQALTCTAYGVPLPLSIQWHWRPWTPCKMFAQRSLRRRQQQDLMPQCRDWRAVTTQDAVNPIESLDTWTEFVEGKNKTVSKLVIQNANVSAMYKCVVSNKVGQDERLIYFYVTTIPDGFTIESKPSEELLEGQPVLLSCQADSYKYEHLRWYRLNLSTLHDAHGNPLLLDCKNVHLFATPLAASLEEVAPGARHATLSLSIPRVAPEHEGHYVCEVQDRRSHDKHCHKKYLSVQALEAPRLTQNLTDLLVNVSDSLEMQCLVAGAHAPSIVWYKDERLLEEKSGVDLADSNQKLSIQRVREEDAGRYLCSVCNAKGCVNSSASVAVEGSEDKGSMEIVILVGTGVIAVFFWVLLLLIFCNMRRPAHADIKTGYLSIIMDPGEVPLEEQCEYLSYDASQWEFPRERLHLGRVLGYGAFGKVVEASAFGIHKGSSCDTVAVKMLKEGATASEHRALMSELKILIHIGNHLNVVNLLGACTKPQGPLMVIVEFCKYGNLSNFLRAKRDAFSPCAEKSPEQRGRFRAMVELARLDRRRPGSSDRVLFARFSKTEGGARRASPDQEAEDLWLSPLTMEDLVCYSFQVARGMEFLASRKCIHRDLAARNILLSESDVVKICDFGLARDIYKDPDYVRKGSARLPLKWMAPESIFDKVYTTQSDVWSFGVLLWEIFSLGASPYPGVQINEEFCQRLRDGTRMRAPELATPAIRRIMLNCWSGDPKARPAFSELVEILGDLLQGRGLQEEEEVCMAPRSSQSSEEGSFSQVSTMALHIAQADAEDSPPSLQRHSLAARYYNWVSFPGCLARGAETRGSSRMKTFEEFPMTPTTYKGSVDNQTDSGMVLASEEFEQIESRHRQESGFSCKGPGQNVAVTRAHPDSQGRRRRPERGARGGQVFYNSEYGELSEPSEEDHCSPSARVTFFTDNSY

Turning to `COc1cccc(OC)c1C(=O)Nc1cccc(-c2nn3ccccc3c2-c2ccnc(Nc3cccc(F)c3)n2)c1` [UNC10225310A], the inhibition at 1 µM on EPHB4 is 8%; at ERBB4, 84%; on FER it was 24%; at FLT4, 27%; at LATS2 it was 10%; at MAK it was 14%.

On to `O=c1cc(N2CCOCC2)nc2n(Cc3cccc(Cl)c3Cl)c(C3CC3)nn12` [UNC10225469A], for which the inhibition at 1 µM on EPHB4 came to 3%; at ERBB4, 0%; on FER it was 3%; at FLT4, 10%; at LATS2, 27%; on MAK it was 0%.

Take `Cn1cc(-c2cnc(N)c3c(-c4ccc5c(c4)CCN5C(=O)Cc4ccccc4)csc23)cn1` [UNC10225012A]: the inhibition at 1 µM on EPHB4 came to 9%; at ERBB4, 0%; at FER, 10%; at FLT4, 31%; at LATS2 it was 23%; at MAK, 0%.

Take `CS(=O)(=O)Cc1ccc(Nc2nccc(-c3c(-c4cccc(NC(=O)C5CCCCC5)c4)nn4ncccc34)n2)cc1` [UNC10225159A]: the inhibition at 1 µM at EPHB4 was 0%; on ERBB4, 74%; at FER it was 8%; on FLT4, 52%; at LATS2, 48%; at MAK, 0%.

As to `Cc1ccc(NC(=O)Nc2cccc(C(F)(F)F)c2)cc1` [UNC10225187A], the inhibition at 1 µM turned out to be 0% at EPHB4; 0% on ERBB4; 0% at FER; 12% on FLT4; 20% at LATS2; 0% at MAK.
